Assay results taken from patent US5780620A, “Non-reducing oligosaccharides and their production and use” (Kabushiki Kaisha Hayashibara Seibutsu Kagaku Kenkyujo, priority 1993, dated 1998).
Converted amounts (≈) assume the structure as drawn.

How the values were obtained:
mice = experiment: Acute toxicity in mice upon oral administration; type: in vivo; settings: for death: maximum administrable dose
Procedure: (§1) High-purity maltosyl maltoside, maltotriosyl maltoside and maltotriosyl maltotrioside prepared by the method in Experiment B-1 were tested for acute toxicity in mice upon oral administration.

[1] = Acute toxicity in mice upon oral administration; type: in vivo; settings: mouse, in vivo, acute
Procedure: as §1

[2] = Reducing power by the Somogyi-Nelson method; type: physicochemical
Procedure: Thereafter these high-purity saccharide preparations were tested for reducing power with the Somogyi-Nelson method and their reducing powers were represented in terms of DE.

[3] = Solubility of crystals in water; type: physicochemical; settings: purity 99.0%, 25° C. water
Procedure: An alpha-D-maltotriosyl alpha-D-maltotrioside (Substance 3), purity of 97% or higher, prepared by the method in Experiment B-1, was decolored, deionized and concentrated to 70% in usual manner and the concentrate was transferred in a beaker and allowed to stand in 4° C. chilled room for 2 months leading to eduction of crystals. The crystals were centrifugally collected and washed with a minimum amount of water, thus obtaining crystals with a purity of 99.0%.
The physicochemical properties of the crystals as tested were as follows:
Relatively high, about 91 g being soluble in 100 ml of 25° C. water.

[4] = Hygroscopicity of crystalline maltotriosyl maltotrioside; type: physicochemical; settings: varies depending on purity

DE (reducing power) [2] | SMILES | acute toxicity (mice) | death (mice) | LD50 [1] [mg/kg] | other results
– | OC[C@H]1O[C@H](O[C@H]2[C@H](O)[C@@H](O)[C@@H](O[C@H]3O[C@H](CO)[C@@H](O[C@H]4O[C@H](CO)[C@@H](O)[C@H](O)[C@H]4O)[C@H](O)[C@H]3O)O[C@@H]2CO)[C@H](O)[C@@H](O)[C@@H]1O [maltosyl maltoside, O-alpha-D-glucopyranosyl-(1→4)-alpha-D-glucopyranosyl alpha-D-maltoside] | low intoxicity | no death was observed | ≥ 50000 | –
– | OC[C@H]1O[C@H](O[C@H]2[C@H](O)[C@@H](O)[C@@H](O[C@H]3O[C@H](CO)[C@@H](O[C@H]4O[C@H](CO)[C@@H](O[C@H]5O[C@H](CO)[C@@H](O)[C@H](O)[C@H]5O)[C@H](O)[C@H]4O)[C@H](O)[C@H]3O)O[C@@H]2CO)[C@H](O)[C@@H](O)[C@@H]1O [maltotriosyl maltoside, O-alpha-D-glucopyranosyl-(1→4)-O-alpha-D-glucopyranosyl-(1→4)-alpha-D-glucopyranosyl alpha-D-maltoside] | low intoxicity | no death was observed | ≥ 50000 | –
0.23 | OC[C@H]1O[C@H](O[C@H]2O[C@H](CO)[C@@H](O[C@H]3O[C@H](CO)[C@@H](O[C@H]4O[C@H](CO)[C@@H](O[C@H]5O[C@H](CO)[C@@H](O[C@H]6O[C@H](CO)[C@@H](O[C@H]7O[C@H](CO)[C@@H](O)[C@H](O)[C@H]7O)[C@H](O)[C@H]6O)[C@H](O)[C@H]5O)[C@H](O)[C@H]4O)[C@H](O)[C@H]3O)[C@H](O)[C@H]2O)[C@H](O)[C@@H](O)[C@@H]1O [PV, alpha-maltopentaosyl trehalose] | – | – | – | –
– | OC[C@H]1O[C@H](O[C@H]2[C@H](O)[C@@H](O)[C@@H](O[C@H]3[C@H](O)[C@@H](O)[C@@H](O[C@H]4O[C@H](CO)[C@@H](O[C@H]5O[C@H](CO)[C@@H](O[C@H]6O[C@H](CO)[C@@H](O)[C@H](O)[C@H]6O)[C@H](O)[C@H]5O)[C@H](O)[C@H]4O)O[C@@H]3CO)O[C@@H]2CO)[C@H](O)[C@@H](O)[C@@H]1O [maltotriosyl maltotrioside, O-alpha-D-glucopyranosyl-(1→4)-O-alpha-D-glucopyranosyl-(1→4)-alpha-D-glucopyranosyl alpha-D-maltotrioside] | low intoxicity | no death was observed | ≥ 50000 | solubility [3]: ~910 mg/mL (≈ 918 mM); hygroscopicity ([4]; listed as crystalline alpha-D-maltotriosyl alpha-D-maltotrioside): very weak hygroscopicity; hygroscopicity ([4]; listed as crystalline maltotriosyl maltotrioside): substantially non-hygroscopic
0.27 | OC[C@H]1O[C@H](O[C@H]2O[C@H](CO)[C@@H](O[C@H]3O[C@H](CO)[C@@H](O[C@H]4O[C@H](CO)[C@@H](O[C@H]5O[C@H](CO)[C@@H](O[C@H]6O[C@H](CO)[C@@H](O)[C@H](O)[C@H]6O)[C@H](O)[C@H]5O)[C@H](O)[C@H]4O)[C@H](O)[C@H]3O)[C@H](O)[C@H]2O)[C@H](O)[C@@H](O)[C@@H]1O [PIV, alpha-maltotetraosyl trehalose] | – | – | – | –
0.35 | OC[C@H]1O[C@H](O[C@H]2O[C@H](CO)[C@@H](O[C@H]3O[C@H](CO)[C@@H](O[C@H]4O[C@H](CO)[C@@H](O)[C@H](O)[C@H]4O)[C@H](O)[C@H]3O)[C@H](O)[C@H]2O)[C@H](O)[C@@H](O)[C@@H]1O [PII, alpha-maltosyl trehalose] | – | – | – | –
0.83 | OC[C@H]1O[C@H](O[C@H]2O[C@H](CO)[C@@H](O[C@H]3O[C@H](CO)[C@@H](O)[C@H](O)[C@H]3O)[C@H](O)[C@H]2O)[C@H](O)[C@@H](O)[C@@H]1O [PI, alpha-glucosyl trehalose] | – | – | – | –
0.10 | OC[C@H]1O[C@H](O[C@H]2O[C@H](CO)[C@@H](O[C@H]3O[C@H](CO)[C@@H](O[C@H]4O[C@H](CO)[C@@H](O[C@H]5O[C@H](CO)[C@@H](O)[C@H](O)[C@H]5O)[C@H](O)[C@H]4O)[C@H](O)[C@H]3O)[C@H](O)[C@H]2O)[C@H](O)[C@@H](O)[C@@H]1O [PIII, alpha-maltotriosyl trehalose] | – | – | – | –
